Test results: patent US12570607B2, “Compound as cyclin-dependent kinase 9 inhibitor and use thereof” (CSPC Zhongqi Pharmaceutical Technology (Shijiazhuang) Co., …, priority 2019, dated 2026)
pIC50: −log10 of the molar value.

How the values were obtained:
[1] = system: MV4;11 cells; test: In vitro MV4;11 cell proliferation inhibition (MTT method); format: cell-based; settings: Homo sapiens
Text: The in vitro inhibitory effect of the synthesized compounds on cell proliferation was investigated.
The trade name of MTT was thiazole blue, which was a tetrazolium salt of a dye that could accept hydrogen atoms. […] Dimethyl sulfoxide could dissolve blue-purple complexes in cells, and its light absorption value could be measured at 490-550 nm wavelength with an enzyme-linked immunosorbent detector, which could indirectly reflect the number of cells. Within a certain range of the cell number, the amount of MTT crystals formed was proportional to the number of cells. The drug to be tested was successively diluted to different concentrations and added to a 96-well plate. The OD value was determined after the drug acted for a certain time. The size of the OD value could reflect the number of living cells, and its IC50 value was calculated with SPSS19.0.
Suspension of cells: Cells were […] by centrifugation and counted. A certain density of cell suspension was formulated with a complete culture medium, blown evenly, inoculated on a 96-well plate, 100 μL per well, and then cultured in a CO2 incubator.
An appropriate amount of the drug was added to a calculated amount of DMSO and dissolved. The resulting mixture was dispensed and stored at −20° C. The formulation concentration was 10 mM.
The stock solution of the compound having a concentration of 10 mM was diluted into different concentrations (8 concentrations) of solutions of the compound in DMSO (3-fold dilution, 20×final concentration). Each concentration of solutions (10 μL) of the compound in DMSO was respectively diluted with cell culture media (90 μL) to formulate working solutions (2×final concentration). Each concentration of working solutions (100 μL) of the compound was added to the 96-well plate inoculated with cells (1×final concentration, the highest final concentration is 1000 nM). The resulting plate continued to be cultured in a CO2 incubator.
The 96-well plate was taken out, and the density of cells was observed under a microscope. The test was performed with the MTT method.
MTT method: 20 μL of MTT was added to each well; the plate was cultured for about 4 hours in the incubator; the liquid in the well was discarded; 150 μL of DMSO was added into each well; the plate was placed in a shaker and shaken for 5-10 minutes, and the test was performed with a microplate reader at a wavelength of 550 nm. 7. Data analysis: IC50 value of the drug was calculated with SPSS19.0 statistical software.

[2] = system: human acute myelocytic leukemia MV4;11 cell subcutaneous xenograft tumor; test: In vivo antitumor activity in MV4;11 cell subcutaneous xenograft tumor model; parameters: species or system NOD-SCID mice; settings: MV4;11 xenograft, p.o.
Method: Cell culture: IMDM culture medium containing 10% fetal bovine serum (FBS), 37° C., 5% CO2.
(§1) NOD-SCID mice, female, 6-8 weeks(18-22 g), each mouse was subcutaneously inoculated with 0.1 mL (1×10^8) MV4;11 cells on the right back of each mouse. When the average tumor volume reached 150 mm^3, drug administration was started. The tumor volume was measured twice a week, and the volume was calculated in cubic millimeters. When the average tumor volume in the vehicle group reached more than 800 mm^3, the administration was terminated to compare the difference in the average tumor volume between the compound groups and the vehicle group. The antitumor efficacy of the compounds was evaluated by TGI (%). TGI (%) reflected the tumor growth inhibition rate.

[3] = system: human acute promyelocytic leukemia HL-60 cell subcutaneous xenograft tumor; test: In vivo antitumor activity in HL-60 cell subcutaneous xenograft tumor model; parameters: species or system Nu/Nu mice; settings: HL-60 xenograft, qd, p.o., 5 mg/Kg, 9 days
Method: as §1, with “Cell culture: IMDM culture medium containing 20% fetal bovine serum (FBS), 37° C., 5% CO2; Nu/Nu” for “NOD-SCID”, “weeks (18-22” for “weeks(18-22”, “of HL-60 cell suspension (containing about 1×10^7 cells) in the axillary region of” for “(1×10^8) MV4;11 cells on”, “forelimb.” for “back of each mouse.”, “2-3 times per” for “twice a”, “group” for “groups”

[4] = biological target: hERG channel (Homo sapiens (Human), UniProt Q12809); test: In vitro hERG inhibitory activity, whole-cell patch-clamp on CHO-K1 cell line stably expressing the hERG channel
hERG channel, sequence (Q12809 whole entry): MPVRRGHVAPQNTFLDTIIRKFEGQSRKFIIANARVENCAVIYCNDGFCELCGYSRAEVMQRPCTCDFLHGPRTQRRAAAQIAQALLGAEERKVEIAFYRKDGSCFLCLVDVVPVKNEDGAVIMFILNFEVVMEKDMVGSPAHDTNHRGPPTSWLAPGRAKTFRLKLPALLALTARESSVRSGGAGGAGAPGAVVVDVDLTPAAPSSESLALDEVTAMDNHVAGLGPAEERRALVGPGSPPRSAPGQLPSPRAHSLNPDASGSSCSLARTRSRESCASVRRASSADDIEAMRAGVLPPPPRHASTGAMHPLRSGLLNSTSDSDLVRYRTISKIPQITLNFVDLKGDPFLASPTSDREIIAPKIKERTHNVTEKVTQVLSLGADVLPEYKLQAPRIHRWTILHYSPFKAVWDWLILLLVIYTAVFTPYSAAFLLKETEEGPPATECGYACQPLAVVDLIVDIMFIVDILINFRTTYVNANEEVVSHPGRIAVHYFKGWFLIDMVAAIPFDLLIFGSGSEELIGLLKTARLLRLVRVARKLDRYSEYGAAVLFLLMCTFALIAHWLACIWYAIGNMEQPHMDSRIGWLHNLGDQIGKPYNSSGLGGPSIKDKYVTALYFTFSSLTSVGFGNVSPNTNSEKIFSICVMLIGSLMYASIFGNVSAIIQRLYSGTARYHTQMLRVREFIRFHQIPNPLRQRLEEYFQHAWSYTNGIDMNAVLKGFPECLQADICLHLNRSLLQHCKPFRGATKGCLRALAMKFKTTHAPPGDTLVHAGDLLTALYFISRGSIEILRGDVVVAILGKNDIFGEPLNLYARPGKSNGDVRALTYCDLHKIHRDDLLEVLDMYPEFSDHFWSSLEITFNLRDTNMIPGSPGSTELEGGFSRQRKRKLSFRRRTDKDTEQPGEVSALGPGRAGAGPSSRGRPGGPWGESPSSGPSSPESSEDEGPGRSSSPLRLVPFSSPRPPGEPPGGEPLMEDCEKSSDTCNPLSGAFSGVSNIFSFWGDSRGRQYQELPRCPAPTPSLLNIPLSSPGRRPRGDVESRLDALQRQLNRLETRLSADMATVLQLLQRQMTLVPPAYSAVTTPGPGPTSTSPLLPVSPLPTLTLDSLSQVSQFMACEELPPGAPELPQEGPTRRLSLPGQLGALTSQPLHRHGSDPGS
Text: Rapid delayed rectifier current (IKr) was mainly mediated by the hERG ion channel and involved in human cardiomyocyte repolarization. Inhibition of IKr was the leading cause of the clinical QT interval prolongation syndrome, even acute cardiac dysrhythmia, and even sudden death. By utilizing a whole-cell patch-clamp technology, the blocking effect of a compound on the hERG channel was detected on a CHO-K1 cell line stably expressing the hERG channel, and the half inhibition concentration IC50 of the compound was determined. It was used as a part of the comprehensive cardiac safety assessment, and it was initially evaluated in the safety in vitro screen for cardiotoxicity.
This assay included the following aspects: • The hERG current was recorded on the CHO-K1 cell line stably expressing the hERG channel by utilizing the manual patch-clamp technology; • The inhibition rate at each concentration was calculated according to the hERG tail current; • The measurement was performed at 5 concentrations for each compound to calculate the IC50 value; • 3 cells were tested at each concentration; • One positive control drug was provided.
The hERG current was recorded by utilizing a whole-cell patch-clamp technology. The cell suspension was added to a dish, and the dish was placed on the object stage of an upright microscope. After adhesion of the cells, perfusion was performed with an extracellular fluid at a flow rate of […]. A glass microelectrode was pulled with a microelectrode puller via a two-step process and the pipette rip resistance was between 2-5 MΩ. After the whole-cell record was set up, the clamp potential was held at −80 mV. The cells were depolarized to +60 mV by applying a voltage stimulus and then repolarized to −50 mV to elicit the hERG tail current. All recordation was conducted after the current became stable. The extracellular perfusion administration was started from the lowest concentration, staying for 5-10 min at each concentration until the current was stable, and then conducted with the next concentration.

COc1cc(F)c(F)cc1-c1cc(NC(=O)[C@H]2CCC[C@@H](NC(=O)C3(C#N)CC3)C2)ncc1F [Compound 67]
pIC50 [1]: 7.17
TGI(%) ([2]; qd, 5 mg/Kg, 9 days): 67.8%
TGI(%) [3]: 67.8%

COc1cc(F)c(F)cc1-c1cc(NC(=O)[C@H]2CCC[C@@H](NC(=O)CO)C2)ncc1F [Compound 68]
pIC50 [1]: 7.30
pIC50 [4]: < 4.52
TGI(%) ([2]; qd, 5 mg/Kg, 7 days): 78.1%
TGI(%) [3]: 90.2%

COc1cc(F)ccc1-c1ccnc(NC(=O)[C@H]2CCC[C@@H](NC(C)=O)C2)c1
TGI(%) ([2]; q2d, 20 mg/Kg, 9 days): 51.5%

COc1cc(F)ccc1-c1cc(NC(=O)[C@H]2CCC[C@@H](NC(=O)C3(C#N)CC3)C2)ncc1F [Compound 33]
pIC50 [1]: 7.77
pIC50 [4]: < 4.52
TGI(%) ([2]; qd, 5 mg/Kg, 9 days): 56.9%

COc1cc(F)ccc1-c1cc(NC(=O)[C@H]2CCC[C@@H](NC(=O)CO)C2)ncc1F [Compound 45]
pIC50 [1]: 7.47
pIC50 [4]: < 4.52
TGI(%) ([2]; qd, 5 mg/Kg, 16 days): 62.9%
TGI(%) [3]: 58.0%

COc1cc(F)ccc1-c1cc(NC(=O)[C@H]2CCC[C@@H](NC(C)=O)C2)ncc1F [Compound 5]
pIC50 [1]: 7.43
pIC50 [4]: < 4.52
TGI(%) ([2]; q2d, 20 mg/Kg, 9 days): 98.5%
